Measurements from US20230085307A1, “PYRIDAZINONE COMPOUND AND HERBICIDE” (NISSAN CHEMICAL CORPORATION, priority 2019, published 2023).

Assays:
barnyard grass [1] = experiment: Test Example 4: herbicidal effect by soil treatment (Table 19, symbol H); type: in vivo, barnyard grass (Echinochloa crus-galli); conditions: amount of applied herbicide 320 g/ha
Method in brief: (§1)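 Herbicidal effect was rated 3 weeks after treatment, using the scoring criteria of an earlier test. The compound, formulated as an emulsion and diluted in water to a set herbicide amount, had been sprayed uniformly on soil over freshly sown seeds. Growth took place in a greenhouse at 25° C. to 30° C.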

Italian ryegrass [2] = experiment: Test Example 5: herbicidal effect by foliage application, plastic box (Table 20, symbol K); type: in vivo, Italian ryegrass (Lolium multiflorum); conditions: amount of applied herbicide 320 g/ha; foliage application after 14-day growth; evaluated three weeks after application
Method in brief: (§2)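 Foliar spray test: emulsion formulation diluted in water to a set application rate, sprayed onto 14-day-old plants raised in diluvial soil at 25° C to 30° C under glass. Both herbicidal effect and crop effect rated visually three weeks later.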

velvetleaf [3] = experiment: Test Example 5: herbicidal effect by foliage application, plastic box (Table 20, symbol M); type: in vivo, velvetleaf (Abutilon theophrasti); conditions: amount of applied herbicide 320 g/ha; foliage application after 14-day growth; evaluated three weeks after application
Method in brief: as §2

velvetleaf [4] = experiment: Test Example 4: herbicidal effect by soil treatment (Table 19, symbol M); type: in vivo, velvetleaf (Abutilon theophrasti); conditions: amount of applied herbicide 320 g/ha
Method in brief: as §1

blackgrass [5] = experiment: Test Example 5: herbicidal effect by foliage application, plastic box (Table 20, symbol J); type: in vivo, blackgrass (Alopecurus myosuroides); conditions: amount of applied herbicide 320 g/ha; foliage application after 14-day growth; evaluated three weeks after application
Method in brief: as §2

wild oat [6] = experiment: Test Example 4: herbicidal effect by soil treatment (Table 19, symbol I); type: in vivo, wild oat (Avena fatua); conditions: amount of applied herbicide 320 g/ha
Method in brief: as §1

lambsquarters [7] = experiment: Test Example 4: herbicidal effect by soil treatment (Table 19, symbol O); type: in vivo, lambsquarters (Chenopodium album); conditions: amount of applied herbicide 320 g/ha
Method in brief: as §1

barnyard grass [8] = experiment: Test Example 3: herbicidal effect by foliage application, Wagner pot (Table 18, symbol H); type: in vivo, barnyard grass (Echinochloa crus-galli); conditions: 320 g/ha
Method in brief: (§3)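 Plants were sown in alluvial soil held under 0.1–0.5 cm standing water and grown 14 days in a greenhouse at 25–30 °C. An emulsifiable formulation, water-diluted to the set dose, was then sprayed onto the foliage, and effects were scored three weeks later using previously defined criteria.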

late watergrass = experiment: Test Example 1: herbicidal activity, application before weed generation under submerged conditions (Table 16, symbol A); type: in vivo, late watergrass (Echinochloa oryzicola); conditions: amount of applied herbicide 320 g/ha
Method in brief: (§4)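 Submerged Wagner pots (alluvial soil, 4 cm water) sown with weed seeds and planted with 2.5-leaf rice seedlings; emulsifiable concentrate diluted in water applied to water surface on sowing day. Held in greenhouse at 25-30 °C; injury scored 0-5 by herbicidal rate after three weeks.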

chickweed [9] = experiment: Test Example 4: herbicidal effect by soil treatment (Table 19, symbol P); type: in vivo, common chickweed (Stellaria media); conditions: amount of applied herbicide 320 g/ha
Method in brief: as §1

redroot pigweed [10] = experiment: Test Example 4: herbicidal effect by soil treatment (Table 19, symbol N); type: in vivo, redroot pigweed (Amaranthus retroflexus); conditions: amount of applied herbicide 320 g/ha
Method in brief: as §1

persian speedwell [11] = experiment: Test Example 5: herbicidal effect by foliage application, plastic box (Table 20, symbol R); type: in vivo, Persian speedwell (Veronica persica); conditions: amount of applied herbicide 320 g/ha; foliage application after 14-day growth; evaluated three weeks after application
Method in brief: as §2

green foxtail [12] = experiment: Test Example 5: herbicidal effect by foliage application, plastic box (Table 20, symbol G); type: in vivo, green foxtail (Setaria viridis); conditions: amount of applied herbicide 320 g/ha; foliage application after 14-day growth; evaluated three weeks after application
Method in brief: as §2

rice flat sedge = experiment: Test Example 3: herbicidal effect by foliage application, Wagner pot (Table 18, symbol E); type: in vivo, rice flat sedge (Cyperus iria); conditions: 320 g/ha
Method in brief: as §3

barnyard grass [13] = experiment: Test Example 5: herbicidal effect by foliage application, plastic box (Table 20, symbol H); type: in vivo, barnyard grass (Echinochloa crus-galli); conditions: amount of applied herbicide 320 g/ha; foliage application after 14-day growth; evaluated three weeks after application
Method in brief: as §2

chickweed [14] = experiment: Test Example 5: herbicidal effect by foliage application, plastic box (Table 20, symbol P); type: in vivo, common chickweed (Stellaria media); conditions: amount of applied herbicide 320 g/ha; foliage application after 14-day growth; evaluated three weeks after application
Method in brief: as §2

windgrass [15] = experiment: Test Example 4: herbicidal effect by soil treatment (Table 19, symbol L); type: in vivo, windgrass (Apera spica-venti); conditions: amount of applied herbicide 320 g/ha
Method in brief: as §1

false cleavers = experiment: Test Example 5: herbicidal effect by foliage application, plastic box (Table 20, symbol Q); type: in vivo, false cleavers (Galium spurium); conditions: amount of applied herbicide 320 g/ha; foliage application after 14-day growth; evaluated three weeks after application
Method in brief: as §2

southern crabgrass [16] = experiment: Test Example 5: herbicidal effect by foliage application, plastic box (Table 20, symbol F); type: in vivo, southern crabgrass (Digitaria ciliaris); conditions: amount of applied herbicide 320 g/ha; foliage application after 14-day growth; evaluated three weeks after application
Method in brief: as §2

wild oat [17] = experiment: Test Example 5: herbicidal effect by foliage application, plastic box (Table 20, symbol I); type: in vivo, wild oat (Avena fatua); conditions: amount of applied herbicide 320 g/ha; foliage application after 14-day growth; evaluated three weeks after application
Method in brief: as §2

redroot pigweed [18] = experiment: Test Example 5: herbicidal effect by foliage application, plastic box (Table 20, symbol N); type: in vivo, redroot pigweed (Amaranthus retroflexus); conditions: amount of applied herbicide 320 g/ha; foliage application after 14-day growth; evaluated three weeks after application
Method in brief: as §2

blackgrass [19] = experiment: Test Example 4: herbicidal effect by soil treatment (Table 19, symbol J); type: in vivo, blackgrass (Alopecurus myosuroides); conditions: amount of applied herbicide 320 g/ha
Method in brief: as §1

Chinese sprangletop = experiment: Test Example 3: herbicidal effect by foliage application, Wagner pot (Table 18, symbol D); type: in vivo, chinese sprangletop (Leptochloa chinensis); conditions: 320 g/ha
Method in brief: as §3

green foxtail [20] = experiment: Test Example 4: herbicidal effect by soil treatment (Table 19, symbol G); type: in vivo, green foxtail (Setaria viridis); conditions: amount of applied herbicide 320 g/ha
Method in brief: as §1

southern crabgrass [21] = experiment: Test Example 4: herbicidal effect by soil treatment (Table 19, symbol F); type: in vivo, southern crabgrass (Digitaria ciliaris); conditions: amount of applied herbicide 320 g/ha
Method in brief: as §1

lambsquarters [22] = experiment: Test Example 5: herbicidal effect by foliage application, plastic box (Table 20, symbol O); type: in vivo, lambsquarters (Chenopodium album); conditions: amount of applied herbicide 320 g/ha; foliage application after 14-day growth; evaluated three weeks after application
Method in brief: as §2

windgrass [23] = experiment: Test Example 5: herbicidal effect by foliage application, plastic box (Table 20, symbol L); type: in vivo, windgrass (Apera spica-venti); conditions: amount of applied herbicide 320 g/ha; foliage application after 14-day growth; evaluated three weeks after application
Method in brief: as §2

oval-leafed pondweed = experiment: Test Example 1: herbicidal activity, application before weed generation under submerged conditions (Table 16, symbol C); type: in vivo, oval-leafed pondweed (Monochoria vaginalis); conditions: amount of applied herbicide 320 g/ha
Method in brief: as §4

persian speedwell [24] = experiment: Test Example 4: herbicidal effect by soil treatment (Table 19, symbol R); type: in vivo, Persian speedwell (Veronica persica); conditions: amount of applied herbicide 320 g/ha
Method in brief: as §1

Japanese bulrush = experiment: Test Example 1: herbicidal activity, application before weed generation under submerged conditions (Table 16, symbol B); type: in vivo, Japanese bulrush (Schoenoplectus juncoides); conditions: amount of applied herbicide 320 g/ha
Method in brief: as §4

Italian ryegrass [25] = experiment: Test Example 4: herbicidal effect by soil treatment (Table 19, symbol K); type: in vivo, Italian ryegrass (Lolium multiflorum); conditions: amount of applied herbicide 320 g/ha
Method in brief: as §1

SMILES: Cc1nn(C)c(=O)c(-c2c(-c3ccc(F)cc3)sc3cc(F)c(F)cc23)c1O [5-001]
- H: barnyard grass, herbicidal effect grade (barnyard grass [1]): 0 (Herbicidal rate of 5% or less (almost no effect))
- Herbicidal effect by foliage application, K: Italian ryegrass (Italian ryegrass [2]): 5 (Herbicidal rate of 90% or more (almost completely withered))
- Herbicidal effect by foliage application, M: velvetleaf (velvetleaf [3]): 5 (Herbicidal rate of 90% or more (almost completely withered))
- M: velvetleaf, herbicidal effect grade (velvetleaf [4]): 4 (Herbicidal rate of 70% or more and less than 90%)
- Herbicidal effect by foliage application, J: blackgrass (blackgrass [5]): 4 (Herbicidal rate of 70% or more and less than 90%)
- I: wild oat, herbicidal effect grade (wild oat [6]): 3 (Herbicidal rate of 40% or more and less than 70%)
- O: lambsquarters, herbicidal effect grade (lambsquarters [7]): 5 (Herbicidal rate of 90% or more (almost completely withered))
- herbicidal effect on barnyard grass (H) (barnyard grass [8]): 4 (Herbicidal rate of 70% or more and less than 90%)
- Herbicidal effect, A: late watergrass (late watergrass): 3 (Herbicidal rate of 40% or more and less than 70%)
- P: chickweed, herbicidal effect grade (chickweed [9]): 4 (Herbicidal rate of 70% or more and less than 90%)
- N: redroot pigweed, herbicidal effect grade (redroot pigweed [10]): 5 (Herbicidal rate of 90% or more (almost completely withered))
- Herbicidal effect by foliage application, R: persian speedwell (persian speedwell [11]): 5 (Herbicidal rate of 90% or more (almost completely withered))
- Herbicidal effect by foliage application, G: green foxtail (green foxtail [12]): 5 (Herbicidal rate of 90% or more (almost completely withered))
- herbicidal effect on rice flat sedge (E) (rice flat sedge): 5 (Herbicidal rate of 90% or more (almost completely withered))
- Herbicidal effect by foliage application, H: barnyard grass (barnyard grass [13]): 4 (Herbicidal rate of 70% or more and less than 90%)
- Herbicidal effect by foliage application, P: chickweed (chickweed [14]): 5 (Herbicidal rate of 90% or more (almost completely withered))
- L: windgrass, herbicidal effect grade (windgrass [15]): 5 (Herbicidal rate of 90% or more (almost completely withered))
- Herbicidal effect by foliage application, Q: false cleavers (false cleavers): 5 (Herbicidal rate of 90% or more (almost completely withered))
- Herbicidal effect by foliage application, F: southern crabgrass (southern crabgrass [16]): 5 (Herbicidal rate of 90% or more (almost completely withered))
- Herbicidal effect by foliage application, I: wild oat (wild oat [17]): 4 (Herbicidal rate of 70% or more and less than 90%)
- Herbicidal effect by foliage application, N: redroot pigweed (redroot pigweed [18]): 5 (Herbicidal rate of 90% or more (almost completely withered))
- J: blackgrass, herbicidal effect grade (blackgrass [19]): 4 (Herbicidal rate of 70% or more and less than 90%)
- herbicidal effect on Chinese sprangletop (D) (Chinese sprangletop): 3 (Herbicidal rate of 40% or more and less than 70%)
- G: green foxtail, herbicidal effect grade (green foxtail [20]): 5 (Herbicidal rate of 90% or more (almost completely withered))
- F: southern crabgrass, herbicidal effect grade (southern crabgrass [21]): 5 (Herbicidal rate of 90% or more (almost completely withered))
- Herbicidal effect by foliage application, O: lambsquarters (lambsquarters [22]): 5 (Herbicidal rate of 90% or more (almost completely withered))
- Herbicidal effect by foliage application, L: windgrass (windgrass [23]): 5 (Herbicidal rate of 90% or more (almost completely withered))
- Herbicidal effect, C: oval-leafed pondweed (oval-leafed pondweed): 0 (Herbicidal rate of 5% or less (almost no effect))
- R: persian speedwell, herbicidal effect grade (persian speedwell [24]): 5 (Herbicidal rate of 90% or more (almost completely withered))
- Herbicidal effect, B: Japanese bulrush (Japanese bulrush): 1 (Herbicidal rate of 5% or more and less than 20%)
- K: Italian ryegrass, herbicidal effect grade (Italian ryegrass [25]): 5 (Herbicidal rate of 90% or more (almost completely withered))
